In the assay the test system is BDF1 mice, B16 melanoma ip, median survival T/C. The assay is described as follows: NCI In Vivo Anticancer Drug Screen. Data for tumor model B16 Melanoma (intraperitoneal) in B6D2F1 (BDF1) mice. The following applies: endpoint: median survival time, higher = longer survival. The method in brief:
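Antitumor activity is assessed in mice bearing a transplanted tumor, with survival or tumor size compared against vehicle-dosed controls and expressed as T/C.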

Setting [1] is: dose: 25.0 mg/kg/injection, schedule: Q01DX009 (ip), vehicle: saline.
[2] abbreviates: dose: 25.0 mg/kg/injection, schedule: Q01DX009 (ip), vehicle: saline with Tween-80.
Setting [3] is: dose: 50.0 mg/kg/injection, schedule: Q01DX009 (ip), vehicle: saline with Tween-80.
Where [4] appears, read: dose: 100.0 mg/kg/injection, schedule: Q01DX009 (ip), vehicle: saline with Tween-80.
Where [5] appears, read: dose: 200.0 mg/kg/injection, schedule: Q01DX009 (ip), vehicle: saline with Tween-80.
Setting [6] is: dose: 75.0 mg/kg/injection, schedule: Q01DX009 (ip), vehicle: Klucel (hydroxypropylcellulose) (HPC).
The mark [7] stands for this setting: dose: 50.0 mg/kg/injection, schedule: Q01DX009 (ip), vehicle: saline.
[8] abbreviates: dose: 100.0 mg/kg/injection, schedule: Q01DX009 (ip), vehicle: saline.

SMILES strings stand for the structures. “And” between values parts separate entries of the source, which are not always exact repeats. Identical values can stand only once. Toxic doses and inconclusive results are not listed.

With `CCOC(=O)c1ccc(NC(=O)Nc2nccs2)cc1`, the T/C reads like this: (dose: 6.25 mg/kg/injection, schedule: Q01DX009 (ip), vehicle: Klucel (hydroxypropylcellulose) (HPC)) 102 % of control; (dose: 6.25 mg/kg/injection, schedule: Q01DX009 (oral), vehicle: Klucel (hydroxypropylcellulose) (HPC)) 113 % of control; (dose: 12.5 mg/kg/injection, schedule: Q01DX009 (ip), vehicle: Klucel (hydroxypropylcellulose) (HPC)) 99 % of control; (dose: 12.5 mg/kg/injection, schedule: Q01DX009 (ip), vehicle: saline with Tween-80) 110 % of control; (dose: 12.5 mg/kg/injection, schedule: Q01DX009 (oral), vehicle: Klucel (hydroxypropylcellulose) (HPC)) 108 % of control; (dose: 12.5 mg/kg/injection, schedule: Q01DX009 (oral), vehicle: saline with Tween-80) 107 % of control. Moreover, the T/C was 96 % of control (dose: 25.0 mg/kg/injection, schedule: Q01DX009 (ip), vehicle: Klucel (hydroxypropylcellulose) (HPC)); 110 % of control (dose: 25.0 mg/kg/injection, schedule: Q01DX009 (oral), vehicle: Klucel (hydroxypropylcellulose) (HPC)); 109 % of control (dose: 25.0 mg/kg/injection, schedule: Q01DX009 (oral), vehicle: saline with Tween-80); 96 % of control (dose: 50.0 mg/kg/injection, schedule: Q01DX009 (ip), vehicle: Klucel (hydroxypropylcellulose) (HPC)); 119 % of control (dose: 50.0 mg/kg/injection, schedule: Q01DX009 (oral), vehicle: Klucel (hydroxypropylcellulose) (HPC)); 106 % of control (dose: 50.0 mg/kg/injection, schedule: Q01DX009 (oral), vehicle: saline with Tween-80). Besides, the T/C (dose: 100.0 mg/kg/injection, schedule: Q01DX009 (ip), vehicle: Klucel (hydroxypropylcellulose) (HPC)) was 114 % of control; the T/C (dose: 100.0 mg/kg/injection, schedule: Q01DX009 (oral), vehicle: Klucel (hydroxypropylcellulose) (HPC)) was 102 % of control; the T/C (dose: 100.0 mg/kg/injection, schedule: Q01DX009 (oral), vehicle: saline with Tween-80) was 119 % of control; the T/C (dose: 200.0 mg/kg/injection, schedule: Q01DX009 (ip), vehicle: Klucel (hydroxypropylcellulose) (HPC)) is 113 % of control; the T/C (dose: 200.0 mg/kg/injection, schedule: Q01DX009 (oral), vehicle: Klucel (hydroxypropylcellulose) (HPC)) was 99 % of control; the T/C (dose: 200.0 mg/kg/injection, schedule: Q01DX009 (oral), vehicle: saline with Tween-80) was 112 % of control. Also, the T/C (dose: 400.0 mg/kg/injection, schedule: Q01DX009 (oral), vehicle: saline with Tween-80) is 110 % of control.

Take `CC(C)CCC[C@@H](C)[C@H]1CC[C@H]2[C@@H]3CC=C4C[C@@H](O)CC[C@]4(C)[C@H]3CC[C@]12C`: the T/C (dose: 100.0 mg/kg/injection, schedule: Q01DX009 (ip), vehicle: other) was 98 % of control and the T/C (dose: 200.0 mg/kg/injection, schedule: Q01DX009 (ip), vehicle: other) was 114 % of control.

As for `COc1ccccc1N1C(=O)C=CC1=O`, the T/C is, setting by setting: (dose: 0.63 mg/kg/injection, schedule: Q01DX009 (ip), vehicle: saline with Tween-80) 93 % of control; (dose: 1.25 mg/kg/injection, schedule: Q01DX009 (ip), vehicle: saline with Tween-80) 89 % of control; (dose: 2.5 mg/kg/injection, schedule: Q01DX009 (ip), vehicle: saline with Tween-80) 87 % of control.

Turning to `CCC1(O)CC2CN(CCc3c([nH]c4ccccc34)C(C(=O)OC)(c3cc4c(cc3OC)N(C)C3C(O)(C(=O)NCCSSCCNC(=O)C5(O)C(O)C6(CC)C=CCN7CCC8(c9cc(C%10(C(=O)OC)CC%11CN(CCc%12c%10[nH]c%10ccccc%12%10)CC(O)(CC)C%11)c(OC)cc9N(C)C58)C76)C(O)C5(CC)C=CCN6CCC43C65)C2)C1` (configuration not stated), the T/C is, setting by setting: (dose: 0.13 mg/kg/injection, schedule: Q04DX003 (ip), vehicle: saline) 122 % of control; (dose: 0.64 mg/kg/injection, schedule: Q01DX009 (ip), vehicle: saline) 184 % of control; (dose: 1.0 mg/kg/injection, schedule: Q04DX003 (ip), vehicle: saline) 151 % of control; (dose: 1.08 mg/kg/injection, schedule: Q01DX009 (ip), vehicle: saline) 189 % of control; (dose: 648.0 micrograms/kg/injection, schedule: Q04DX003 (ip), vehicle: saline) 158 % of control and 181 % of control; (dose: 1080.0 micrograms/kg/injection, schedule: Q04DX003 (ip), vehicle: saline) 183 % of control and 203 % of control. In addition, the T/C (dose: 1800.0 micrograms/kg/injection, schedule: Q04DX003 (ip), vehicle: saline) is 184 % of control and 203 % of control.

Turning to `CC(=O)OCCN1CC1`, the T/C reads like this: (dose: 3.12 mg/kg/injection, schedule: Q01DX009 (ip), vehicle: saline) 109 % of control; (dose: 6.25 mg/kg/injection, schedule: Q01DX009 (ip), vehicle: saline) 103 % of control; (dose: 12.5 mg/kg/injection, schedule: Q01DX009 (ip), vehicle: saline) 100 % of control; under setting [1], 95 % of control.

Take `CCOC(=O)N1CCc2nc3ccc(Cl)cc3cc21`: the T/C is, setting by setting: under setting [2], 113 % of control; under setting [3], 111 % of control; under setting [4], 124 % of control; under setting [5], 106 % of control.

Turning to `Cc1ccc(Cl)cc1NC(=O)COc1ccc(Cl)cc1`, the T/C was 92 % of control under setting [2], 91 % of control under setting [3] and 88 % of control under setting [4].

Regarding `CCCCCC#CC(=O)O`, the T/C is, setting by setting: under setting [6], 95 % of control; (dose: 150.0 mg/kg/injection, schedule: Q01DX009 (ip), vehicle: Klucel (hydroxypropylcellulose) (HPC)) 86 % of control.

For the compound `CSCCC1NC(=O)C(C(C)=Nc2ccccc2)=C1O` (configuration not stated), the T/C under setting [3] was 100 % of control, the T/C under setting [4] is 96 % of control and the T/C under setting [5] was 95 % of control.

Regarding `CCC(CC)N=C(N)N`, the T/C is 101 % of control under setting [1], 98 % of control under setting [7] and 112 % of control under setting [8].

Regarding `COc1c(OC(C)=O)cc2c(OC(C)=O)c1CC(C)CC(OC)C(O)C(C)/C=C(\C)C(OC(N)=O)C(OC)/C=C\C=C(/C)C(=O)N2` (configuration not stated), the T/C is 97 % of control (dose: 12.5 mg/kg/injection, schedule: Q01DX005 (ip), vehicle: other); 98 % of control (dose: 25.0 mg/kg/injection, schedule: Q01DX005 (ip), vehicle: other); 97 % of control (dose: 50.0 mg/kg/injection, schedule: Q01DX005 (ip), vehicle: other); 101 % of control (dose: 100.0 mg/kg/injection, schedule: Q01DX005 (ip), vehicle: other); 94 % of control (dose: 200.0 mg/kg/injection, schedule: Q01DX005 (ip), vehicle: other).

Take `NCC(=O)NCC(=O)NC(Cc1ccc(O)cc1)C(=O)O` (configuration not stated): the T/C under setting [3] is 104 % of control; the T/C under setting [4] was 94 % of control; the T/C under setting [5] is 102 % of control; the T/C (dose: 400.0 mg/kg/injection, schedule: Q01DX009 (ip), vehicle: saline with Tween-80) was 95 % of control.

As to `CCC1NC(=O)C(NC(=O)c2ncccc2O)C(C)OC(=O)C(c2ccccc2)NC(=O)C2CC(=O)CCN2C(=O)C(Cc2ccccc2)N(C)C(=O)C2CCCN2C1=O` (configuration not stated) (tested in a mixture with another compound), the T/C runs as follows: (dose: 18.75 mg/kg/injection, schedule: Q01DX009 (ip), vehicle: Klucel (hydroxypropylcellulose) (HPC)) 104 % of control; (dose: 37.5 mg/kg/injection, schedule: Q01DX009 (ip), vehicle: Klucel (hydroxypropylcellulose) (HPC)) 108 % of control; under setting [6], 108 % of control.

Take `COc1cc(-c2ccc(N=Nc3cc(S(=O)(=O)O)c4ccccc4c3O)c(OC)c2)ccc1N=Nc1cc(S(=O)(=O)O)c2ccccc2c1O`: the T/C was 102 % of control under setting [8]; 89 % of control (dose: 200.0 mg/kg/injection, schedule: Q01DX009 (ip), vehicle: saline); 93 % of control (dose: 400.0 mg/kg/injection, schedule: Q01DX009 (ip), vehicle: saline).

With `CCNCC#CCNCC`, the T/C runs as follows: under setting [7], 107 % of control; under setting [8], 94 % of control.

For the origin of these results see PubChem BioAssay AID192 (DTP/NCI, 2004).
